Reference: US6686209B2, “Reagents for detecting cannabinoids” (Lifepoint, Inc., priority 2001, dated 2004)

System: antibodies against Δ^9-THC
Test: Cross-reactivity by displacement of cannabinol-based tracer from immobilized antibody (continuous flow)
Type: binding
Settings: for MAX FI (mV): sample with 25 ng/mL of unlabeled substance, cannabinol-based tracer (FIG. 10) displaced, 0 ng/mL baseline 422; for percent cross-reactivity: 25 ng/mL
Protocol: The lower binding affinity of an antibody to a particular tracer may be measured by the percent cross-reactivity of the antibody to the tracer as compared to the analyte in a sample. For example, immobilized antibodies against Δ^9-THC were bound with the cannabinol-based tracer (shown in FIG. 10) similar to the methods as described in Example VII. Different samples containing 25 ng/mL of Δ^9-THC (unlabeled), Δ^8-THC (unlabeled), unlabeled 9-carboxy-Δ^9-THC (THCA), cannabidiol (unlabeled), or unlabeled cannabinol were flowed through different columns having the antibody-tracer complex to determine the amount of cross-reactivity. The amount of tracer displaced was then compared between the different samples.
Using Δ^9-THC as the standard (i.e., Δ^9-THC set at 100% cross-reactivity) (1602/1602)), 9-carboxy-Δ^9-THC has a percent cross-reactivity of about 540% (8700/1602), and cannabinol has a percent cross-reactivity of about 79% (1266/1602). If 9-carboxy-Δ^9-THC were used as the standard (i.e., 9-carboxy-Δ^9-THC set at 100% cross-reactivity (8700/8700)), then the percent cross-reactivity for cannabinol would be about 14.5% (1266/8700). If Δ^8-THC were used as a standard (i.e., A ^8-THC set at 100% cross-reactivity (1488/1488)), then the present cross-reactivity for cannabinol would be about 85% (1266/1488).

Compound | MAX FI (mV) | percent cross-reactivity (9-carboxy-Δ^9-THC as the standard (100%)) | percent cross-reactivity (Δ^8-THC as the standard (100%)) | percent cross-reactivity (Δ^9-THC as the standard (100%))
C=C(C)[C@@H]1CCC(C)=C[C@H]1c1c(O)cc(CCCCC)cc1O [Cannabidiol, cannabidiol] | 624 mV |  |  | 
CCCCCc1cc(O)c2c(c1)OC(C)(C)c1ccc(C)cc1-2 [Cannabinol, 6,6,9-trimethyl-3-pentyl-6H-dibenzo[b,d]pyran-1-ol] | 1266 mV | about 14.5% | about 85% | about 79%
CCCCCc1cc(O)c2c(c1)OC(C)(C)[C@@H]1CCC(C(=O)O)=C[C@@H]21 [THCA, 9-carboxy-Δ^9-THC] | 8700 mV |  |  | about 540%
CCCCCc1cc(O)c2c(c1)OC(C)(C)[C@@H]1CC=C(C)C[C@@H]21 [Δ^8-THC] | 1488 mV |  |  | 
CCCCCc1cc(O)c2c(c1)OC(C)(C)[C@@H]1CCC(C)=C[C@@H]21 [Δ^9-THC, Δ^9-tetrahydrocannabinol] | 1602 mV |  |  | 
